Reference: Sander's compilation of Henry's law constants (doi:10.1136/oem.36.3.231)

Assay: Henry solubility constant Hcp at 310 K (mol/(m3 Pa))
Settings: reference: Sato and Nakajima (1979a)

Structure (SMILES)	Henry solubility constant Hcp at 310 K
Cc1ccccc1C [1,2-dimethylbenzene]	0.001
Cc1cccc(C)c1 [1,3-dimethylbenzene]	0.00064
Cc1ccc(C)cc1 [1,4-dimethylbenzene]	0.00061
CCCCCC(C)=O [2-heptanone]	0.037
CCCCC(C)=O [2-hexanone]	0.043
CCCC(C)=O [2-pentanone]	0.064
C=CCc1ccccc1 [2-propenylbenzene]	0.0014
CCC(=O)CC [3-pentanone]	0.07
CC(=O)CC(C)C [4-methyl-2-pentanone]	0.031
CC(C)c1ccccc1 [(2-propyl)-benzene]	0.00056
c1ccccc1 [benzene]	0.0011
C=Cc1ccccc1 [ethenylbenzene]	0.0018
CCc1ccccc1 [ethylbenzene]	0.00066
Cc1ccccc1 [methylbenzene]	0.00086
CC(C)=O [propanone]	0.15
CCCc1ccccc1 [propylbenzene]	0.0005
